Active and inactive are the calls of the source. The calls are words filed in the database; no cut-off is given here.
Assays:
MDA-MB-468 = assay: Growth inhibition of human MDA-MB-468 cells assessed as cell viability measured after 4 days by WST8 assay; assay type: functional, cell-based; conditions: MDA-MB-468, 96 h
BT-549 = assay: Growth inhibition of human BT-549 cells assessed as cell viability measured after 4 days by WST8 assay; assay type: functional, cell-based; conditions: BT-549, 96 h
MDA-MB-231 [1] = assay: Growth inhibition of human MDA-MB-231 cells assessed as cell viability measured after 4 days by WST8 assay; assay type: functional, cell-based; conditions: MDA-MB-231, 96 h
[2] = biological target: T1, Protein cereblon/Cyclin-dependent kinase 9 (Homo sapiens) (UniProt P50750+Q96SW2); assay: Protac activity at CRBN/CDK9 in human MDA-MB-231 cells assessed as induction of degradation of CDK9 at 500 nM incubated for 8 hrs by Western blot analysis; assay type: cell-based
[3] = biological target: T1, Protein cereblon/Cyclin-dependent kinase 9 (Homo sapiens); assay: Protac activity at CRBN/CDK9 in human MDA-MB-231 cells assessed as induction of degradation of CDK9 at 500 nM measured after 2 hrs by Western blot analysis; assay type: cell-based
[4] = biological target: T1, Protein cereblon/Cyclin-dependent kinase 9 (Homo sapiens); assay: Protac activity at CRBN/CDK9 in human MDA-MB-231 cells assessed as induction of degradation of CDK9 measured after 4 to 8 hrs by Western blot analysis; assay type: cell-based; conditions: dose 0.01-2.5 µM, time 4-8 hrs
[5] = biological target: T1, Protein cereblon/Cyclin-dependent kinase 9 (Homo sapiens); assay: Protac activity at CRBN/CDK9 in human MDA-MB-231 cells assessed as induction of degradation of CDK9 pretreated with compound 44 at 500 nM incubated for 8 hrs by Western blot analysis; assay type: cell-based
[6] = biological target: T1, Protein cereblon/Cyclin-dependent kinase 9 (Homo sapiens); assay: Protac activity at CRBN/CDK9 in human MDA-MB-231 cells assessed as induction of degradation of CDK9 pretreated with thalidomide at 500 nM incubated for 8 hrs by Western blot analysis; assay type: cell-based
[7] = biological target: T1, Protein cereblon/Cyclin-dependent kinase 9 (Homo sapiens); assay: Protac activity at CRBN/CDK9 in human MDA-MB-231 cells assessed as induction of degradation of CDK9 pretreated with PR171 at 500 nM incubated for 8 hrs by Western blot analysis; assay type: cell-based
[8] = biological target: T1, Protein cereblon/Cyclin-dependent kinase 9 (Homo sapiens); assay: Protac activity at CRBN/CDK9 in human MDA-MB-231 cells assessed as induction of degradation of CDK9 pretreated with MLN4924 at 500 nM incubated for 8 hrs by Western blot analysis; assay type: cell-based
[9] = biological target: Protein cereblon/Cyclin-dependent kinase 1 (Homo sapiens) (UniProt P06493+Q96SW2); assay: Protac activity at CRBN/CDK1 in human MDA-MB-231 cells assessed as induction of degradation of CDK1 at 0.01 to 2.5 uM incubated for 4 to 8 hrs by Western blot analysis; assay type: cell-based; conditions: dose 0.01-2.5 µM, time 4-8 hrs
[10] = biological target: Protein cereblon/Cyclin-dependent kinase 2 (Homo sapiens) (UniProt P24941+Q96SW2); assay: Protac activity at CRBN/CDK2 in human MDA-MB-231 cells assessed as induction of degradation of CDK2 at 0.01 to 2.5 uM incubated for 4 to 8 hrs by Western blot analysis; assay type: cell-based; conditions: dose 0.01-2.5 µM, time 4-8 hrs
[11] = biological target: Protein cereblon/Cyclin-dependent kinase 4 (Homo sapiens) (UniProt P11802+Q96SW2); assay: Protac activity at CRBN/CDK4 in human MDA-MB-231 cells assessed as induction of degradation of CDK4 at 0.01 to 2.5 uM incubated for 4 to 8 hrs by Western blot analysis; assay type: cell-based; conditions: dose 0.01-2.5 µM, time 4-8 hrs
[12] = biological target: Protein cereblon/Cyclin-dependent kinase 5 (Homo sapiens) (UniProt Q00535+Q96SW2); assay: Protac activity at CRBN/CDK5 in human MDA-MB-231 cells assessed as induction of degradation of CDK5 at 0.01 to 2.5 uM incubated for 4 to 8 hrs by Western blot analysis; assay type: cell-based; conditions: dose 0.01-2.5 µM, time 4-8 hrs
[13] = biological target: Protein cereblon/Cyclin-dependent kinase 6 (Homo sapiens) (UniProt Q00534+Q96SW2); assay: Protac activity at CRBN/CDK6 in human MDA-MB-231 cells assessed as induction of degradation of CDK6 at 0.01 to 2.5 uM incubated for 4 to 8 hrs by Western blot analysis; assay type: cell-based; conditions: dose 0.01-2.5 µM, time 4-8 hrs
[14] = biological target: Protein cereblon/Cyclin-dependent kinase 7 (Homo sapiens) (UniProt P50613+Q96SW2); assay: Protac activity at CRBN/CDK7 in human MDA-MB-231 cells assessed as induction of degradation of CDK7 at 0.01 to 2.5 uM incubated for 4 to 8 hrs by Western blot analysis; assay type: cell-based; conditions: dose 0.01-2.5 µM, time 4-8 hrs
MDA-MB-231 [15] = assay: Downregulation of CDK9 mRNA expression in human MDA-MB-231 cells at 0.5 uM incubated for 4 hrs by RNA-seq analysis; assay type: functional, cell-based
[16] = Downregulation of MCL1 gene expression in human MDA-MB-231 cells at 0.5 uM incubated for 4 hrs by quantitative RT-PCR based gene set enrichment analysis relative to control; assay type: functional
[17] = Downregulation of MYC gene expression in human MDA-MB-231 cells at 0.5 uM incubated for 4 hrs by quantitative RT-PCR based gene set enrichment analysis relative to control; assay type: functional
MDA-MB-231 [18] = assay: Induction of apoptosis in human MDA-MB-231 cells assessed as apoptotic cells at 10 nM incubated for 48 hrs by Annexin V-FITC/PI analysis (reference value: 4.85%); assay type: functional
MDA-MB-231 [19] = assay: Induction of apoptosis in human MDA-MB-231 cells assessed as apoptotic cells at 100 nM incubated for 48 hrs by Annexin V-FITC/PI analysis (reference value: 4.85%); assay type: functional
MDA-MB-231 [20] = assay: Induction of apoptosis in human MDA-MB-231 cells assessed as apoptotic cells at 500 nM incubated for 48 hrs by Annexin V-FITC/PI analysis (reference value: 4.85%); assay type: functional
[21] = Solubility of the compound; assay type: physicochemical
[22] = biological target: Protein cereblon/Eukaryotic peptide chain release factor GTP-binding subunit ERF3A (Homo sapiens) (UniProt Q96SW2+P15170); assay: Protac activity at CRBN/GSPT1 in human MDA-MB-231 cells assessed as induction of degradation of GSPT1 incubated for 4 to 8 hrs by Western blot analysis; assay type: cell-based; conditions: time 4-8 hrs
Tumour [23] = assay: Induction of CDK9 degradation in tumor of human MDA-MB-231 cells xenografted in BALB/c mouse model at 0.15 mM intratumoral injection measured after 16 hrs by Western blot analysis relative to control; assay type: functional, Neoplasm
Tumour [24] = assay: Induction of CDK7 degradation in tumor of human MDA-MB-231 cells xenografted in BALB/c mouse model at 0.15 mM intratumoral injection measured after 16 hrs by Western blot analysis relative to control; assay type: functional, tissue-based; conditions: Neoplasm

T1 sequence (P50750 whole entry, looked up): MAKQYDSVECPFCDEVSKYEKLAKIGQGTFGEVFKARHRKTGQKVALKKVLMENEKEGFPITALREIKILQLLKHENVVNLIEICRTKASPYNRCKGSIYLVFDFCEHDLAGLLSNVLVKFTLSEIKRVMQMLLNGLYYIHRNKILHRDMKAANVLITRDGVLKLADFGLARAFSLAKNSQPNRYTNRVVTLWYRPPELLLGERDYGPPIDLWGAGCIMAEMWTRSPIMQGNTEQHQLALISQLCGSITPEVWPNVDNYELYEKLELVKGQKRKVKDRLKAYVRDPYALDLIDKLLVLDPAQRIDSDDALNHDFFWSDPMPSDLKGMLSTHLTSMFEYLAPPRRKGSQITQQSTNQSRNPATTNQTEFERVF
T1 sequence (Q96SW2 whole entry, looked up): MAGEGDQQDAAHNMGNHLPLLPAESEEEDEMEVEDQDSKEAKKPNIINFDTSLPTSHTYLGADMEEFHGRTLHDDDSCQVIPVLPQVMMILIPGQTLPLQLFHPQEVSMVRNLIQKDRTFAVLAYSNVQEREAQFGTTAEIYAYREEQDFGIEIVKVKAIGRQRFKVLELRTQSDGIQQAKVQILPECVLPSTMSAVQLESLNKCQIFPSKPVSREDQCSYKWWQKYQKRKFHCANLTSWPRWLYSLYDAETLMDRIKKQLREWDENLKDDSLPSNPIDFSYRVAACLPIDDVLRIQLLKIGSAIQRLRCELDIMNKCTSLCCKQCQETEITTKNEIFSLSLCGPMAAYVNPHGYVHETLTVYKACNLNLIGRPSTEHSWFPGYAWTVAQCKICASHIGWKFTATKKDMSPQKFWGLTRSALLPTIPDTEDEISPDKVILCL
Chain of Protein cereblon/Cyclin-dependent kinase 4 (Homo sapiens) (P11802 2-303 limits assumed): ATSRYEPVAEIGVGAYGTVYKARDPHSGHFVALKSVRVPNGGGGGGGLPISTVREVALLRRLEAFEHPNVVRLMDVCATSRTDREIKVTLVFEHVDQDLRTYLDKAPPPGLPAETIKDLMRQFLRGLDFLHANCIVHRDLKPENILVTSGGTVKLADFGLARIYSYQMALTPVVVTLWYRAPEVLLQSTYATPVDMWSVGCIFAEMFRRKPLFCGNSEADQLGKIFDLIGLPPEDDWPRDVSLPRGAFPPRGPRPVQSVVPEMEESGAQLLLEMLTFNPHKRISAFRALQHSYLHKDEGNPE
Chain of Protein cereblon/Cyclin-dependent kinase 4 (Homo sapiens) (Q96SW2 whole entry partner): as the sequence (Q96SW2 whole entry, looked up) above
Chain of Protein cereblon/Eukaryotic peptide chain release factor GTP-binding subunit ERF3A (Homo sapiens) (P15170 whole entry, looked up): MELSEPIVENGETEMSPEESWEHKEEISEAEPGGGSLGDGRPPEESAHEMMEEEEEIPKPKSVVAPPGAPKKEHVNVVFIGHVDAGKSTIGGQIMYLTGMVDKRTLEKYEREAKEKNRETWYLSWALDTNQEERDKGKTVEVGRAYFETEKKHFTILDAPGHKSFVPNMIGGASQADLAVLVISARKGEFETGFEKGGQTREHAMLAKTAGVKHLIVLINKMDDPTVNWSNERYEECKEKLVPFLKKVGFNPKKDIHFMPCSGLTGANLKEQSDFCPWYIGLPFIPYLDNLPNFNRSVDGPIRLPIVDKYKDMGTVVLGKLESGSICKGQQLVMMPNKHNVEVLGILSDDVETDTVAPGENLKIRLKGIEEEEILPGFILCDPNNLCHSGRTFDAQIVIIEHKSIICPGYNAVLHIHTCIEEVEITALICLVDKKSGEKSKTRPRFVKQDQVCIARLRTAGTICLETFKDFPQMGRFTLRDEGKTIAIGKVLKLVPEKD
Chain of Protein cereblon/Eukaryotic peptide chain release factor GTP-binding subunit ERF3A (Homo sapiens) (Q96SW2 whole entry, looked up): as the sequence (Q96SW2 whole entry, looked up) above
Chain of Protein cereblon/Cyclin-dependent kinase 7 (Homo sapiens) (P50613 whole entry, looked up): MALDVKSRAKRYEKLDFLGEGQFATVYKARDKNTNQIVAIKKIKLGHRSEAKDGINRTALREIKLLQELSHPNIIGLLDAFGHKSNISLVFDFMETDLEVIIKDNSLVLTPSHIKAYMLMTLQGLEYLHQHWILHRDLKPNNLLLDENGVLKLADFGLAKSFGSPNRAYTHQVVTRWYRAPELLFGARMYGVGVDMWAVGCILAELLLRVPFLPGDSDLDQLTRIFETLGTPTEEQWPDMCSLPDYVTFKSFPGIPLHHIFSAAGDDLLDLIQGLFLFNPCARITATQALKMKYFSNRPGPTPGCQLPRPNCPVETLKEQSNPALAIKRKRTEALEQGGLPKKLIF
Chain of Protein cereblon/Cyclin-dependent kinase 7 (Homo sapiens) (Q96SW2 whole entry, looked up): as the sequence (Q96SW2 whole entry, looked up) above
Chain of Protein cereblon/Cyclin-dependent kinase 6 (Homo sapiens) (Q00534 whole entry, looked up): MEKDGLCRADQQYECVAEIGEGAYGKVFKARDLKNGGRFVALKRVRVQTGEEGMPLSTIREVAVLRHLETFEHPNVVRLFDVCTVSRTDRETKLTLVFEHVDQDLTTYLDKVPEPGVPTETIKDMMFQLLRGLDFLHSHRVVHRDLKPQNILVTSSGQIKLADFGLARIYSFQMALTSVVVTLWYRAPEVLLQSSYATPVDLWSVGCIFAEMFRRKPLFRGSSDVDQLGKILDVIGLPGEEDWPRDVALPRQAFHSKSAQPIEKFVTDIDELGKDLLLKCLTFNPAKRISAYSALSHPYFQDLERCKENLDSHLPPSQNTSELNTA
Chain of Protein cereblon/Cyclin-dependent kinase 6 (Homo sapiens) (Q96SW2 whole entry, looked up): as the sequence (Q96SW2 whole entry, looked up) above
Chain of Protein cereblon/Cyclin-dependent kinase 1 (Homo sapiens) (P06493 whole entry, looked up): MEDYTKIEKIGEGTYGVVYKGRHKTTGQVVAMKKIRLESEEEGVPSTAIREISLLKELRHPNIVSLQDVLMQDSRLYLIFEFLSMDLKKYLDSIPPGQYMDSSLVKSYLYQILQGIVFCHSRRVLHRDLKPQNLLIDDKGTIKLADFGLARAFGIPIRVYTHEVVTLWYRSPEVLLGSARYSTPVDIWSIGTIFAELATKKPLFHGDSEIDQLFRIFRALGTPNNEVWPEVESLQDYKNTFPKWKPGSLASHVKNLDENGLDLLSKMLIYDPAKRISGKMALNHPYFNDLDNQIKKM
Chain of Protein cereblon/Cyclin-dependent kinase 1 (Homo sapiens) (Q96SW2 whole entry, looked up): as the sequence (Q96SW2 whole entry, looked up) above
Chain of Protein cereblon/Cyclin-dependent kinase 5 (Homo sapiens) (Q00535 whole entry, looked up): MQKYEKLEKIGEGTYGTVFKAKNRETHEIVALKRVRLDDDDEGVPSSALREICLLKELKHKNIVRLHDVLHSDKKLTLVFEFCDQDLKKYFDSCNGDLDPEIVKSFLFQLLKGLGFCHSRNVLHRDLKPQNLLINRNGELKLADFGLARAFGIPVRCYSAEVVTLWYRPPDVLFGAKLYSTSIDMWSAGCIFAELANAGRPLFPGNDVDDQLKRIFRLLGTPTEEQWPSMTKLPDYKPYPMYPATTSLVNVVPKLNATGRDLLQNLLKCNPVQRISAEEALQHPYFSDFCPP
Chain of Protein cereblon/Cyclin-dependent kinase 5 (Homo sapiens) (Q96SW2 whole entry, looked up): as the sequence (Q96SW2 whole entry, looked up) above

IC50 (MDA-MB-468): 66 nM
IC50 (BT-549): 48 nM
IC50 (MDA-MB-231 [1]): 51 nM
Activity [2]: Active
Activity [3]: 100%
Activity [4]: Dose-Dependent Effect
Activity [5]: inactive
Activity [6]: inactive
Activity [7]: inactive
Activity [8]: inactive
Activity [9]: inactive
Activity [10]: inactive
Activity [11]: inactive
Activity [12]: inactive
Activity [13]: inactive
Activity [14]: inactive
solubility [21]: Insoluble
Activity [22]: inactive
Structure (SMILES): CC(C)c1cnn2c(NCc3ccc(NC(=O)CCCCCCCOc4cccc5c4C(=O)N(C4CCC(=O)NC4=O)C5=O)cc3)nc(OC3CCN(C)CC3)nc12 (stereo unspecified)
Activity (MDA-MB-231 [15]): inactive
inhibition at 0.5 µM [16]: 59.6%
inhibition at 0.5 µM [17]: 75.3%
Activity (MDA-MB-231 [18]): 6.39%
Activity (MDA-MB-231 [19]): 10.48%
Activity (MDA-MB-231 [20]): 26.49%
Activity (Tumour [23]): 26%
Activity (Tumour [24]): inactive

Source: ChEMBL document CHEMBL4828763, “Discovery of Potent and Selective CDK9 Degraders for Targeting Transcription Regulation in Triple-Negative Breast Cancer” (J Med Chem, 2021)
